The text below walks through data of patent US20240024261A1, “PHARMACEUTICAL COMPOSITION FOR IMPROVING COGNITIVE ABILITY OR ENHANCING MEMORY” (DR. RAYMOND LAB INC, priority 2020, published 2024).

Values joined by “and” are separate entries in the source; they are usually repeats but may differ in a detail not shown here. Identical values can stand only once. Counter-ions that a name gives are not always drawn.

The test system of one assay is ICR mouse. The experiment in a line: Passive avoidance test in scopolamine-treated mice. Format: in vivo. The settings on record: Donepezil 1 mg/kg oral; scopolamine i.p.; mean ± standard error; hydrochloride. The procedure:
Each material prepared in the preparation example was prepared so that each may be orally administered to 7 experimental groups in the following and Table 1.
In the following Table 1, only the excipient prepared in the preparation examples was orally administered to a normal control group and a negative control group, respectively, scopolamine was administered to the remaining experimental groups (G2-G7) other than the normal control group (G1) in the behavioral experiment of Test Example 4 to cause cognitive function decline and a memory impairment effect, and then the behavior was observed.
After the test material (drug) of Test Example 3 was administered to each experimental group during the test, a passive avoidance test was performed, and change in mouse behavior was observed.
After each of the test materials was administered to each experimental group of Table 1 of Test Example 3, the passive avoidance test was performed on day 25 by the following procedure: • a) The object was put into an unlit white room of a conditioning box for the passive avoidance test, and then was adapted for 60 seconds. • b) A guillotine door was opened simultaneously with turning on a LED light of the white room, and the object was allowed to explore a dark room for 180 seconds for adaptation. • c) On the next day (day 26) also, the above process was performed and repeated once more, and the object was adapted so that it took around 30 seconds to enter the dark room after turning on the LED light. • d) After administering the drug 1 hour before learning on day 27, 4 mL/kg of Scopolamine which was dissolved at 0.25 mg/mL in a 0.9% saline solution was intraperitoneally administered to the objects of the remaining experimental groups other than the normal control group (G1), respectively, after 30 minutes, and the objects were allowed to stand for 30 minutes in the breeding box. • e) 30 minutes after administering Scopolamine, the objects were put into the unlit white room, the guillotine door was opened simultaneously with turning on the LED light after 10 seconds. When all of the four legs of the objects entered to the dark room, the guillotine door was closed, the time spent (latency time) was measured with a timer, and electrical stimulation was given at 0.5 mA for 3 seconds.

A further assay deals with acetylcholine. Nature of the assay: Acetylcholine content in hippocampus after passive avoidance test. Format: in vivo, mouse. The settings on record: Donepezil 1 mg/kg oral, scopolamine, mean ± standard error, hydrochloride. The procedure:
(§1) On the next day of the end of the passive avoidance test, the test material was administered, and the objects were allowed to stand in a home cage for 30 minutes. Subsequently, Scopolamine was intraperitoneally administered at a dose of 1 mg/kg, and then the objects were allowed to stand in a home cage for 30 minutes.
(§2) A brain tissue was separately separated and stored at −70° C. until analysis.
A choline assay buffer (Biovision, CA, USA) was added to a hippocampal tissue of the separated brain, crushed, and then centrifuged to obtain a supernatant liquid, which was used in the test.
The amount of acetylcholine in the supernatant liquid was measured using a choline/acetylcholine quantification kit (Biovision, CA, USA).

For the next assay, the system named is TNF-α. The experiment in a line: Inflammatory cytokine TNF-α in hippocampus (ELISA). Format: in vivo, mouse. The settings on record: Donepezil 1 mg/kg oral, scopolamine, mean ± standard error, hydrochloride. How it is done:
as §1, §2
(§3) Inflammatory cytokine in a brain tissue was measured with a supernatant liquid obtained by adding a tissue protein extraction reagent (Biovision, CA, USA) to a brain tissue, crushing it, and centrifuging it, using an ELISA Kit (R&D System, MN, USA).
In general terms: ELISA stands for enzyme-linked immunosorbent assay.

A further assay has as its system IL-1β. Nature of the assay: Inflammatory cytokine IL-1β in hippocampus (ELISA). Format: in vivo, mouse. The settings on record: Donepezil 1 mg/kg oral, scopolamine, mean ± standard error, hydrochloride. How it is done: as §1, §2, §3

On to `COc1cc2c(cc1OC)C(=O)C(CC1CCN(Cc3ccccc3)CC1)C2` (stereo not shown) [Donepezil, Donepezil hydrochloride, reference compound], for which, in the assay with ICR mouse, the “Passive avoidance test Time taken (latency time)” value is 45.6 s and 45.6 ± 14 s. Also, the Acetylcholine in the assay on acetylcholine is 1.8 Nmol/mg protein and 1.8 ± 0.2 Nmol/mg protein. In the assay with TNF-α, the TNF-α was 186.2 pg/mg tissue protein and 186.2 ± 30.3 pg/mg tissue protein. For the same compound, the IL-1β in the assay on IL-1β was 160.9 pg/mg tissue protein and 160.9 ± 23.2 pg/mg tissue protein.
